This test deals with rifampin-resistant S. aureus isolated from diseased animals. The test is classed as cell-based, Staphylococcus aureus. To be noted: range over the 13 rifampin-resistant strains. The procedure:
The antibacterial effect of the rifamycin derivative (1) against rifampin-resistant Staphylococcus aureus bacterial strains was determined. The tested bacterial strains were isolated from a variety of animal diseases as well as laboratory strains.
All bacteria were maintained on 3 mm glass beads immersed in trypticase soy broth (BBL Microbiology Systems, Cockeysville, Md.) with 10% glycerol and held at −70° C. until revived. Prior to testing, the organisms were subcultured on tryptose blood agar base (Difco, Detroit, Mich.) supplemented with 5% sheep blood for 24 hours at 35° C.
The compounds were dissolved in 95% ethanol and diluted to 10% ethanol in sterile, distilled water except for the compounds used in the in vivo testing where saline was used to dilute the original ethanol/drug suspension. Further dilutions were conducted in water or saline.
MICs were determined using the microbroth dilution method. In addition to the test organisms, the following quality control strain also was tested: Staphylococcus aureus ATCC 29213. The results are shown in Table 5, wherein R is the alkyl group R in the rifamycin derivative (1).

The record followed here is patent US6486161B1, “Use of rifamycin derivative for treating mastitis in a domestic animal” (priority 2000, dated 2002).

For the compound `COC1/C=C/OC2(C)Oc3c(C)c(O)c4c(=O)c(c5oc6cc(N7CCN(C)CC7)cc(O)c6nc-5c4c3C2=O)NC(=O)/C(C)=C\C=C\C(C)C(O)C(C)C(O)C(C)C(OC(C)=O)C1C` (stereo not shown) [R = methyl], the “MIC Range” value is 0.06 to 4.0 µg/mL.
